# Data reported in patent US6660742B2, “Compositions and methods of the use thereof achiral analogues of CC-1065 and the duocarmycins” (priority 2000, dated 2003).
# Like-named read-outs stand apart in the source and are kept apart here.
# How the values were obtained:
# MCF7/ADR-RES = assay: NCI screen, MCF7/ADR-RES (Breast Cancer); format: cell-based, human; conditions: NCI/ADR-RES, 48 hour exposure
# Method: (§1) The compounds of this invention were also tested against the panel of 60 human cancer cell lines at the National Cancer Institute, Bethesda, Md. […] The cytrotoxicity studies were conducted using a 48 hour exposure, and measuring the optical density of sulforhodamide B-derived color.
# HT29 = assay: NCI screen, HT29 (Colon Cancer)
# Method: as §1
# TK-10 = assay: NCI screen, TK-10 (Renal Cancer); conditions: TK-10, 48 hour exposure
# Method: as §1
# BT-549 = assay: NCI screen, BT-549 (Breast Cancer); conditions: BT-549, 48 hour exposure
# Method: (§2) The compounds of this invention were also tested against the panel of 60 human cancer cell lines at the National Cancer Institute, Bethesda, Md. (44). The cytrotoxicity studies were conducted using a 48 hour exposure, and measuring the optical density of sulforhodamide B-derived color.
# OVCAR-8 = assay: NCI screen, OVCAR-8 (Ovarian Cancer); conditions: OVCAR-8, 48 hour exposure
# Method: as §2
# HS 578T = assay: NCI screen, HS 578T (Breast Cancer); conditions: HS 578T, 48 hour exposure
# Method: as §2
# MOLT-4 = assay: NCI screen, MOLT-4 (Leukemia)
# Method: as §1
# NCI-H322M = conditions: NCI-H322M; Log10 Concentration −5.3; 48 hour exposure
# EKVX = assay: NCI screen, EKVX (Non-Small Cell Lung Cancer)
# Method: as §1
# ACHN = format: cell-based, human
# UACC-62 = assay: NCI screen, UACC-62 (Melanoma)
# Method: as §1
# SF-268 = assay: NCI screen, SF-268 (CNS Cancer); conditions: SF-268, 48 hour exposure
# Method: as §2
# NCI-H23 = assay: NCI screen, NCI-H23 (Non-Small Cell Lung Cancer)
# Method: as §1
# IGROV1 = assay: NCI screen, IGROV1 (Ovarian Cancer); format: cell-based, human; conditions: IGROV1, 48 hour exposure
# Method: as §1
# U251 = assay: NCI screen, U251 (CNS Cancer); conditions: U251, 48 hour exposure
# Method: as §1
# LOX IMVI = assay: NCI screen, LOX IMVI (Melanoma); conditions: LOX IMVI, 48 hour exposure
# Method: as §2
# MDA-MB-435 = assay: NCI screen, MDA-MB-435 (Breast Cancer); format: cell-based, human
# Method: as §1
# CAKI-1 = assay: NCI screen, CAKI-1 (Renal Cancer); conditions: CAKI-1, 48 hour exposure
# Method: as §1
# MDA-MB-231/ATCC = conditions: MDA-NB-231/ATCC, 48 hour exposure
# CCRF-CEM = assay: NCI screen, CCRF-CEM (Leukemia)
# Method: as §1
# SW-620 = assay: NCI screen, SW-620 (Colon Cancer); format: cell-based, human
# Method: as §1
# [1] = Log10 Concentration −4.3, 48 hour exposure
# [2] = Log10 Concentration −5.3, 48 hour exposure
# [3] = Log10 Concentration −6.3, 48 hour exposure
# [4] = Log10 Concentration −7.3, 48 hour exposure
# [5] = Log10 Concentration −8.3, 48 hour exposure
smiles,measurement,setting,value
"COC(=O)c1[nH]c2c(O)cc(NC(=O)c3cc4cc(OC)c(OC)c(OC)c4[nH]3)c(CCCl)c2c1C(=O)OC [Compound 22, Dimethyl 4-(2-chloroethyl)-7-hydroxy-5-(5,6,7-trimethoxyindole-2-carboxamido)indole-2,3-dicarboxylate]",TGI,MCF7/ADR-RES,8.17E−07 Molar
same,Percent Growth,MCF7/ADR-RES; Log10 Concentration −4.3,−41%
same,Percent Growth,MCF7/ADR-RES; Log10 Concentration −5.3,−58%
same,Percent Growth,MCF7/ADR-RES; Log10 Concentration −6.3,16%
same,Percent Growth,MCF7/ADR-RES; Log10 Concentration −7.3,77%
same,Percent Growth,MCF7/ADR-RES; Log10 Concentration −8.3,97%
same,TGI,HT29; 48 hour exposure,2.28E−07 Molar
same,Percent Growth,HT29; [1],−55%
same,Percent Growth,HT29; [2],−59%
same,Percent Growth,HT29; [3],−32%
same,Percent Growth,HT29; [4],63%
same,Percent Growth,HT29; [5],84%
same,TGI,TK-10,>5.00E−05 Molar
same,Percent Growth,TK-10; Log10 Concentration −4.3,8%
same,Percent Growth,TK-10; Log10 Concentration −5.3,22%
same,Percent Growth,TK-10; Log10 Concentration −6.3,31%
same,Percent Growth,TK-10; Log10 Concentration −7.3,102%
same,Percent Growth,TK-10; Log10 Concentration −8.3,100%
same,TGI,BT-549,1.23E−05 Molar
same,Percent Growth,BT-549; Log10 Concentration −4.3,−39%
same,Percent Growth,BT-549; Log10 Concentration −5.3,25%
same,Percent Growth,BT-549; Log10 Concentration −6.3,42%
same,Percent Growth,BT-549; Log10 Concentration −7.3,85%
same,Percent Growth,BT-549; Log10 Concentration −8.3,91%
same,TGI,OVCAR-8,2.33E−07 Molar
same,Percent Growth,OVCAR-8; Log10 Concentration −4.3,−64%
same,Percent Growth,OVCAR-8; Log10 Concentration −5.3,−65%
same,Percent Growth,OVCAR-8; Log10 Concentration −6.3,−32%
same,Percent Growth,OVCAR-8; Log10 Concentration −7.3,65%
same,Percent Growth,OVCAR-8; Log10 Concentration −8.3,86%
same,TGI,HS 578T,2.80E−07 Molar
same,Percent Growth,HS 578T; Log10 Concentration −4.3,−54%
same,Percent Growth,HS 578T; Log10 Concentration −5.3,−73%
same,Percent Growth,HS 578T; Log10 Concentration −6.3,−41%
same,Percent Growth,HS 578T; Log10 Concentration −7.3,122%
same,Percent Growth,HS 578T; Log10 Concentration −8.3,130%
same,TGI,MOLT-4; 48 hour exposure,>5.00E−05 Molar
same,Percent Growth,MOLT-4; [1],22%
same,Percent Growth,MOLT-4; [2],20%
same,Percent Growth,MOLT-4; [3],21%
same,Percent Growth,MOLT-4; [4],28%
same,Percent Growth,MOLT-4; [5],61%
same,Percent Growth,NCI-H322M,−8%
same,TGI,EKVX; 48 hour exposure,5.14E−07 Molar
same,Percent Growth,EKVX; [1],−83%
same,Percent Growth,EKVX; [2],−62%
same,Percent Growth,EKVX; [3],1%
same,Percent Growth,EKVX; [4],102%
same,Percent Growth,EKVX; [5],102%
same,TGI,ACHN,5.95E−06 Molar
same,TGI,UACC-62; 48 hour exposure,1.85E−07 Molar
same,Percent Growth,UACC-62; [1],−89%
same,Percent Growth,UACC-62; [2],−78%
same,Percent Growth,UACC-62; [3],−58%
same,Percent Growth,UACC-62; [4],76%
same,Percent Growth,UACC-62; [5],90%
same,TGI,SF-268,8.40E−08 Molar
same,Percent Growth,SF-268; Log10 Concentration −4.3,−58%
same,Percent Growth,SF-268; Log10 Concentration −5.3,−63%
same,Percent Growth,SF-268; Log10 Concentration −6.3,−42%
same,Percent Growth,SF-268; Log10 Concentration −7.3,12%
same,Percent Growth,SF-268; Log10 Concentration −8.3,80%
same,TGI,NCI-H23; 48 hour exposure,5.63E−06 Molar
same,Percent Growth,NCI-H23; [1],−25%
same,Percent Growth,NCI-H23; [2],1%
same,Percent Growth,NCI-H23; [3],9%
same,Percent Growth,NCI-H23; [4],56%
same,Percent Growth,NCI-H23; [5],83%
same,TGI,IGROV1,1.62E−07 Molar
same,Percent Growth,IGROV1; Log10 Concentration −4.3,−80%
same,Percent Growth,IGROV1; Log10 Concentration −5.3,−35%
same,Percent Growth,IGROV1; Log10 Concentration −6.3,−59%
same,Percent Growth,IGROV1; Log10 Concentration −7.3,61%
same,Percent Growth,IGROV1; Log10 Concentration −8.3,71%
same,TGI,RPMI-8226,>5.00E−05 Molar
same,TGI,U251,8.44E−06 Molar
same,Percent Growth,U251; Log10 Concentration −4.3,−40%
same,Percent Growth,U251; Log10 Concentration −5.3,12%
same,Percent Growth,U251; Log10 Concentration −6.3,11%
same,Percent Growth,U251; Log10 Concentration −7.3,74%
same,Percent Growth,U251; Log10 Concentration −8.3,89%
same,TGI,LOX IMVI,3.84E−07 Molar
same,Percent Growth,LOX IMVI; Log10 Concentration −4.3,−61%
same,Percent Growth,LOX IMVI; Log10 Concentration −5.3,−23%
same,Percent Growth,LOX IMVI; Log10 Concentration −6.3,−9%
same,Percent Growth,LOX IMVI; Log10 Concentration −7.3,66%
same,Percent Growth,LOX IMVI; Log10 Concentration −8.3,81%
same,TGI,MDA-MB-435; 48 hour exposure,3.95E−07 Molar
same,Percent Growth,MDA-MB-435; [1],−32%
same,Percent Growth,MDA-MB-435; [2],−28%
same,Percent Growth,MDA-MB-435; [3],−11%
same,Percent Growth,MDA-MB-435; [4],97%
same,Percent Growth,MDA-MB-435; [5],96%
same,TGI,CAKI-1,8.01E−06 Molar
same,Percent Growth,CAKI-1; Log10 Concentration −4.3,−40%
same,Percent Growth,CAKI-1; Log10 Concentration −5.3,10%
same,Percent Growth,CAKI-1; Log10 Concentration −6.3,12%
same,Percent Growth,CAKI-1; Log10 Concentration −7.3,83%
same,Percent Growth,CAKI-1; Log10 Concentration −8.3,97%
same,TGI,MDA-MB-231/ATCC,> 5.00E−05 Molar
same,Percent Growth,MDA-MB-231/ATCC; Log10 Concentration −4.3,10%
same,Percent Growth,MDA-MB-231/ATCC; Log10 Concentration −5.3,12%
same,Percent Growth,MDA-MB-231/ATCC; Log10 Concentration −6.3,16%
same,Percent Growth,MDA-MB-231/ATCC; Log10 Concentration −7.3,89%
same,Percent Growth,MDA-MB-231/ATCC; Log10 Concentration −8.3,99%
same,TGI,CCRF-CEM; 48 hour exposure,>5.00E−05 Molar
same,Percent Growth,CCRF-CEM; [1],17%
same,Percent Growth,CCRF-CEM; [2],18%
same,Percent Growth,CCRF-CEM; [3],19%
same,Percent Growth,CCRF-CEM; [4],43%
same,Percent Growth,CCRF-CEM; [5],77%
same,TGI,SW-620; 48 hour exposure,1.90E−05 Molar
same,Percent Growth,SW-620; [1],−11%
same,Percent Growth,SW-620; [2],16%
same,Percent Growth,SW-620; [3],9%
same,Percent Growth,SW-620; [4],71%
same,Percent Growth,SW-620; [5],86%
